Experimental data as given in PMC11013010, “Serendipitous Identification of Azine Anticancer Agents Using a Privileged Scaffold Morphing Strategy” (Molecules, 2024).
Converted amounts (≈) assume the structure as drawn. “And” between values parts separate entries of the source, which are not always exact repeats. Equal entries are not always repeated.

How the values were obtained:
H9 cells = test: Cytotoxicity assay (CellTiter Glo) on lymphoma cells; conditions: ratio CC50 FB789 / CC50 H9
[1] = as above; conditions: human
[2] = Cytotoxicity assay (CellTiter Glo) on hepatocarcinoma cells; format: cell-based; conditions: human, Huh7 hepatocarcinoma cells, Huh7 hepatocarcinoma
Method: (§1) Cell-based assays were carried out on the normal human fibroblast FB789 cell line (kindly provided by Elena Dell’Ambra from IRCCS Istituto Dermopatico dell’Immacolata, Rome), on the Huh7 hepatocarcinoma cell line (kindly provided by Istituto Toscano Tumori, Core Research Laboratory, Siena, Italy), on the Caco-2 adenocarcinoma colorectal cell line (ATCC catalog. n. HTB-37), on the suspension H9 cell line (repository code ARP0001, NIBSC Centre for AIDS reagents) and on the adherent TZM-bl cell line (repository code ARP5011, NIBSC Centre for AIDS reagents).
(§2) High glucose Dulbecco’s Modified Eagle Medium with sodium pyruvate and L-glutamine (DMEM; Euroclone) was used to grow Huh-7 and TZM-bl. Minimum Essential Eagle Medium (EMEM; Euroclone) was used to propagate Caco-2. DMEM and EMEM were supplemented with 10% fetal bovine serum (FBS; Euroclone) and 1% penicillin/streptomycin (Pen/Strep, Euroclone). The growth medium with a lower concentration of FBS (1%) was used for viral propagation, cytotoxic and antiviral experiments in adherent cell lines. […] All cell lines were grown at 37 °C in a 5% CO2 atmosphere in a humidified incubator.
(§3) The cytotoxicity of all investigated compounds was assayed in all cells lines as previously described. Briefly, confluent cells were treated with decreasing compound concentrations for 48h. The final DMSO concentration used was never greater than 0.5% v/v. Each experiment was performed in duplicate and repeated in two independent experiments. Cell viability was calculated using the CellTiter Glo 2.0 kit (Promega, Madison, WI, USA) and luminescence values signal obtained from cells treated with serial dilution of the compounds were measured through the GloMax® Discover Multi mode Microplate Reader (Promega) and elaborated with GraphPad PRISM software version 9.0 (La Jolla, San Diego, CA, USA). […] A non-toxic dose of each compound was used as the starting concentration in the antiviral activity assay.

Huh7 cells = test: as above; format: cell-based; conditions: ratio CC50 FB789 / CC50 Huh7
Method: as §1, §2, §3

[3] = Kinetic aqueous solubility; format: physicochemical; conditions: Milli-Q water, 25 °C, kinetic from dmso stock; for solubility kinetic at 3 h: water, Mill-Q H2O, RT, LOD 0.1 µg/mL
Method: For the quantitative analysis, a UV/LC-MS system was used. LC analysis was performed through an Agilent 1260 Infinity HPLC-DAD system (Agilent Technologies, Palo Alto, CA, USA), which constituted of a vacuum solvent degassing unit, a binary high-pressure gradient pump, and a UV detector, that was connected to an Agilent MSD 6130 system (Agilent Technologies, Palo Alto, CA, USA). The Agilent 1260 series mass spectra detection (MSD) single-quadrupole instrument was equipped with the orthogonal spray API-ES (Agilent Technologies, Palo Alto, CA, USA). Nitrogen was used as a nebulizing and drying gas. Chromatographic separation was performed using a Phenomenex Kinetex EVO C18-100 Å (150 × 4.6 mm, 5 μm particle size) at 25 °C and a gradient elution with a binary solution; eluent A was H2O, while eluent B consisted of ACN (both eluents were acidified with FA 0.1% v/v). […] UV detection was monitored at 254 nm. Spectra were acquired over the scan range m/z 100–1500 in positive mode.
DMSO-stock compounds’ solutions were diluted with Mill-Q H2O to a final concentration of 200 μM. The percentage of DMSO never exceeded 2% v/v. Samples were incubated under gentle shaking at 25 °C (RT) conditions for 3 h. The suspensions were filtered using a 0.45 µm nylon filter (Acrodisc, VWR, Radnor, PE, USA), and the amount of solubilized compound was determined with the HPLC-UV-MS method reported above. The quantification of the solubilized compound was made with the appropriate calibration curve realized with stock solutions in DMSO (0.1–100 µg/mL). The limit of detection (LOD) was quantified at 0.1 µg/mL.

[4] = Cytotoxicity assay (CellTiter Glo) on colon epithelial carcinoma cells; conditions: human, Caco-2
Caco-2 cells = test: as above; conditions: ratio CC50 FB789 / CC50 Caco-2
[5] = Cytotoxicity assay (CellTiter Glo) on normal fibroblasts; format: cell-based, human; conditions: human, FB789 normal fibroblast cells
Method: as §1
(§4) The FB789 was cultured in Dulbecco’s Modified Eagle Medium (DMEM) and Ham’s F10 in a ratio of 50%, supplemented with 10% FBS, 2 mM L-glutamine, and 10,000 unit/mL penicillin/streptomycin.
as §3

FB789 cells = test: as above; format: cell-based, human; conditions: pyrimidines and pyridines, read out at 48 h, mean ± SD
Method: as §1, §4, §3

[6] = Metabolic stability assay with human liver microsomes; format: in vitro ADME; conditions: 1 h, 37 °C, 50 µM
Method: A DMSO solution of selected compounds was incubated in the presence of phosphate buffer (25 mM, pH 7.4), human liver microsomal protein (200 µg/mL), and an NADPH regenerating system in MgCl2 (48 mM) at a final concentration of 50 µM. The metabolic reactions were conducted for 1 h under shaking at 37 °C and then stopped by adding cold acetonitrile (ACN). Centrifuging the mixtures at 5000 rpm, the supernatant was separated, dried under nitrogen flow, and finally suspended in methanol (MeOH). The amount of the parent drug and the metabolites were determined as previously described.

Plasma stability assay = format: in vitro ADME; conditions: human plasma, 24 h, 37 °C; % of Time 0
Method: A DMSO solution of each compound was incubated at a final concentration of 100 µM at 37 °C under shaking with HEPES buffer (25 mM, 140 mM NaCl, pH 7.4) and human plasma. At time 0 and after 24 h, samples were collected from the reaction mixtures and treated with cold ACN. After centrifugation at 5000 rpm for 10 min, the supernatant was collected, and the amount of unmodified compound was determined using the HLPC-UV/MS method described above. Modified compounds were calculated using time zero as 100% of the unmodified compound.

[7] = Parallel artificial membrane permeability assay (PAMPA); format: in vitro ADME; conditions: GI, pH 7.4, 5 h, RT
Method: To evaluate the apparent permeability of tested compounds, a DMSO stock solution [1 mM] of each derivative was prepared and then diluted 1:1 v/v with phosphate buffer (PBS 25 mM, pH 7.4) in order to make the donor solutions. According to the protocol already published, the gastrointestinal (GI) phospholipidic bilayer was mimed through adding a 1% w/v dodecane solution of phosphatidylcholine (PC). The sandwich plates were assembled and incubated for 5 h at RT. At the end time point, the amount of compound passed through the phospholipid bilayer was measured using HPLC-UV/MS. Finally, apparent permeability (Papp) and membrane retention (MR%) were calculated as previously described.

WNV = WNV antiviral yield reduction assay in Huh7; conditions: read-out: potency on WNV; flavivirus WNV
DENV = DENV antiviral yield reduction assay in Huh7; conditions: read-out: potency on DENV; flavivirus DENV
SARS-CoV-2 = system: SARS-CoV-2; parameters: method as in PMID 36557962; conditions: half-maximal concentration inhibiting 50% of virus replication; cited from earlier work
[8] = pyrimidines and pyridines, read out at 48 h, mean ± SD
[9] = triazines 1-9, read-out 48 h, Cell-Titer Glo

| SMILES | TSI H9 (H9 cells; pyrimidines and pyridines) | CC50 at 48 h [1] [µM] | CC50 at 48 h [2, 8] [µM] | TSI Huh7 (Huh7 cells; pyrimidines and pyridines) | solubility kinetic at 3 h [3] [µg/mL] | CC50 at 48 h [4] [µM] | TSI Caco-2 (Caco-2 cells; pyrimidines and pyridines) | CC50 at 48 h [5, 8] [µM] | CC50 FB789 (FB789 cells) | Metabolic Stability [6] [%] | Plasmatic Stability (Plasma stability assay) [%] | Papp at 5 h, 0.5 mM [7] [×10⁻⁶ cm/s] | TSI H9 (H9 cells; triazines 1-9) | CC50 at 48 h ([2]; triazines 1-9, read-out 48 h) [µM] | TSI Huh7 (Huh7 cells; triazines 1-9) | TSI Caco-2 (Caco-2 cells; triazines 1-9) | CC50 at 48 h [5, 9] [µM] | also measured |
| --- | --- | --- | --- | --- | --- | --- | --- | --- | --- | --- | --- | --- | --- | --- | --- | --- | --- | --- |
| Cc1cccc(/C=N/Nc2cc(Nc3ccc(F)cc3)nc(N3CCOCC3)c2)c1 [Compound 38b] | 5.0 | 18 ± 4 | 9 ± 6 | 10.0 | 0.54 (≈ 1.33 µM) | 8 ± 3 | 11.3 | 90 ± 9 | very low cytotoxic effect | 97.93 ± 0.46 | 87.13 ± 0.48 | 6.35 ± 0.67 |  |  |  |  |  | solubility at 3 h ([3]; log of kinetic water solubility, read-out: LogS (converted)): 1.35 µM (≈ 0.547 µg/mL) |
| Oc1ccccc1/C=N/Nc1nc(Nc2ccc(F)cc2)nc(N2CCOCC2)n1 [Compound 4] |  | 2 ± 1 |  |  |  | 3 ± 1 |  |  |  |  |  |  | 5.5 | 9 ± 1 | 1.2 | 3.7 | 11 ± 3 | IC50 (WNV): 1.1 µM; IC50 (DENV): 2 µM |
| Cc1cccc(/C=N/Nc2cc(Nc3ccc(F)cc3)nc(Nc3ccc(F)cc3)c2)c1 [Compound 33b] | 17.0 | 23 ± 7 | 21 ± 12 | 18.6 | < 0.1 | 11 ± 9 | 35.5 | 390 ± 30 | very low cytotoxic effect | >99.9 | 81.01 ± 3.28 | 1.38 ± 0.6 |  |  |  |  |  | MR (membrane retention) [7]: 46.84% and 46.84 ± 4.99% |
| Oc1ccccc1/C=N/Nc1nc(N2CCOCC2)nc(N2CCOCC2)n1 [Compound 1] |  | > 100 |  |  |  | > 400 |  |  |  |  |  |  | <0.3 | > 100 | <0.3 | <0.1 | 30 ± 6 | IC50 (SARS-CoV-2): 12.1 µM |
